The source made the active and inactive calls.
Columns and labels:
[1] = target: Long-chain-fatty-acid--AMP ligase FadD28 (Mycobacterium tuberculosis, UniProt P9WQ59); assay: Fluorescence polarization aasay to screen for inhibitors that compete for the binding of FadD28 to a bisubstrate Measured in Biochemical System Using Plate Reader - 2147-01_Inhibitor_Dose_CherryPick_Activity.; type: functional, Mycobacterium tuberculosis H37Rv
[2] = A549 cell cytotoxicity, dose response, cytotoxicity control, plate reader, cherry-pick, antagonist series (AID 743412); type: functional, cell-based
[3] = inhibition of bursicon-driven LGR2 cAMP signaling – cell-based, HEK293, CRE-luciferase reporter, cherry pick, dose response (AID 743342); type: functional
[4] = HeLa cell viability loss – plate reader, dry powder, cytotoxicity control, dose response (AID 651946); type: functional, cell-based
[5] = test system: Vero; assay: viability loss in Vero cells – cell-based, plate reader, cherry-pick samples, cytotoxicity control, dose response (AID 687020); type: functional; conditions: Chlorocebus sabaeus
[6] = test system: A549; assay: viability loss in A549 cells – cell-based, plate reader, cherry-pick samples, cytotoxicity control, dose response (AID 687028); type: functional; conditions: Homo sapiens
[7] = general mammalian cell viability loss – inhibitor set, cherry-pick, set 2, cytotoxicity control for miR-122 modulator project, dose response (AID 720697); type: functional, cell-based
[8] = test system: BJ; assay: BJ-TERT fibroblast viability loss – cell-based, RAS-independent, luminescence, dose response (AID 1933); type: functional; conditions: Homo sapiens
[9] = test system: BJ; assay: cells; type: functional, cell-based; conditions: Homo sapiens
[10] = loss of viability in HepG2 cells – cell-based, CellTiter-Glo, cherry-picked, cytotoxicity control for Shn3 inhibitor project, dose response (AID 624134); type: functional
[11] = DRD fibroblast viability loss – cell-based, non-viral oncogenic, luminescence, dose response (AID 1934); type: functional; conditions: Homo sapiens
[12] = reduction of Shn3 3'UTR-driven luciferase in osteoblasts – cell-based, Clone20 osteoblasts, firefly luciferase, cherry-picked, dose response (AID 624132); type: functional;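 further: firefly luciferase luminescence from reporter carrying the Shn3 3'UTR in osteoblasts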
[13] = potency of ADAM10 substrate cleavage blockers – biochemical, QFRET, dose response (AID 743254);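 further: ADAM10 enzyme with the DM2 quenched FRET peptide as substrate; EDANS fluorescence gain as the protease cuts the substrate; inhibitor potency against ADAM10 proteolytic activity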
[14] = target: Disintegrin and metalloproteinase domain-containing protein 17 (Homo sapiens, UniProt P78536); assay: inhibition of ADAM17 substrate cleavage – biochemical, quenched FRET substrate, counter-screen for ADAM10 exosite inhibitor project, dose response (AID 743253)
Chain of Disintegrin and metalloproteinase domain-containing protein 17 (P78536 whole entry, the tested form may be a part): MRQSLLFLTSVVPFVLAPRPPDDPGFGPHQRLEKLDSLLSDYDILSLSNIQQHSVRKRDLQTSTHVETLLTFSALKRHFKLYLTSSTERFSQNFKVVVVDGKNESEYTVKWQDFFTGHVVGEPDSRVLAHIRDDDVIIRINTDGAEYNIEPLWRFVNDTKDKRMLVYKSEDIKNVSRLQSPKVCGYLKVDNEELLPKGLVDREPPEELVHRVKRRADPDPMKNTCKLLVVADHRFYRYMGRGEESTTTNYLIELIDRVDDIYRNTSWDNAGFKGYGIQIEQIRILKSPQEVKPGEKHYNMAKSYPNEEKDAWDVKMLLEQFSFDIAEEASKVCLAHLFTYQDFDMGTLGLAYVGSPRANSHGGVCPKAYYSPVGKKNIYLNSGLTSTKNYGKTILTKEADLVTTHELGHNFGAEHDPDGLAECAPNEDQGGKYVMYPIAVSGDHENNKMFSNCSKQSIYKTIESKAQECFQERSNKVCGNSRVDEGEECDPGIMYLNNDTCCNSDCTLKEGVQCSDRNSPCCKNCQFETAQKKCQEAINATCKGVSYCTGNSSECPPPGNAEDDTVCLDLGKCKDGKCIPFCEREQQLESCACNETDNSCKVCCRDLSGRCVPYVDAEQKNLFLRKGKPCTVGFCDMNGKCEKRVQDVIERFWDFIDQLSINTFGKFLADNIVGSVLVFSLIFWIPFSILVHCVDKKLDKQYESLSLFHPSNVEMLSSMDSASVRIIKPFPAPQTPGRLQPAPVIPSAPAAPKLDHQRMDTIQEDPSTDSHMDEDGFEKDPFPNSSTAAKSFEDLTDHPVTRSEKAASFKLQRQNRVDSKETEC

[15] = test system: BJ; assay: BJ-TERT-LT-ST fibroblast viability loss – cell-based, RAS-independent, luminescence, dose response (AID 1935); type: functional; conditions: Homo sapiens;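 further: BJ fibroblasts immortalized with TERT plus LT and ST oncogenes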
[16] = non-specific 3'UTR reporter inhibition in Clone20-Shn3RL – cell-based, Renilla luciferase, cherry-picked, counter-screen for Shn3 inhibitor project, dose response (AID 624133); type: functional
[17] = target: T1, Matrix metalloproteinase-14 (Homo sapiens, UniProt P50281); assay: SAR confirmation of uHTS hits for a small molecule inhibitors of MT1-MMP activation in a fluorescence assay.; type: functional
[18] = target: T1, Matrix metalloproteinase-14; assay: Dose Response confirmation of uHTS hits for a small molecule inhibitors of MT1-MMP activation in a fluorescence assay set 2.; type: functional
[19] = cells
[20] = viability of BHK-21 cells – cell-based, secondary screen, cytotoxicity control for flavivirus guanylyltransferase probe project (AID 624078); type: functional
[21] = cells; conditions: A549

Chain of Long-chain-fatty-acid--AMP ligase FadD28 (P9WQ59 whole entry): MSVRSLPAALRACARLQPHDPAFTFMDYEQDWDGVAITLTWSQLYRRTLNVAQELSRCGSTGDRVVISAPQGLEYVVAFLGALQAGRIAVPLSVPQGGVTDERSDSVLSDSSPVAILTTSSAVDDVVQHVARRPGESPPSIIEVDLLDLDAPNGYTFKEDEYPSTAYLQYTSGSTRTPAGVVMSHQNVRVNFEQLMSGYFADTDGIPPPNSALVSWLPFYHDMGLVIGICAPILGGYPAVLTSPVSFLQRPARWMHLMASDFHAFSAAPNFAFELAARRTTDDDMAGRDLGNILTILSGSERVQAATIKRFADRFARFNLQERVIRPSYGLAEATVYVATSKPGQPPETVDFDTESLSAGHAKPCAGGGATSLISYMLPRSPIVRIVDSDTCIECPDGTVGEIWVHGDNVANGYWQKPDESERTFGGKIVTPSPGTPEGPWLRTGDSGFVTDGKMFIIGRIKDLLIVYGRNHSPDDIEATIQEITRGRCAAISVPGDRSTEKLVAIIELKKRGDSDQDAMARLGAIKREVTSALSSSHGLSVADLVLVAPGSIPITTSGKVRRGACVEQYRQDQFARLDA

## COc1cccc(-n2nnnc2SCC(=O)Nc2cccc(C)n2)c1
[1]
  AC50: 50.1 µM (active)

## C[C@H](CO)N1C[C@H](C)[C@H](CN(C)C(=O)Nc2ccc3c(c2)OCO3)OCCCC[C@H](C)Oc2ccc(NC(=O)C3CCCCC3)cc2C1=O
[2]
  AC50: 41 µM (active)
[3]
  AC50: 2.21 µM (active)

## N#Cc1cccc(CSc2nnc(-c3ccccc3)o2)c1
[4]
  AC50: > 52 µM (inactive)

## Cc1cccc(C(=O)N2CCC(=O)N([C@H](COCc3ccc(Cl)cc3)Cc3ccccc3)CC2)c1
[5]
  AC50: 33.6 µM (active)
[6]
  AC50: 28.5 µM (active)

## CC1CCN(CCc2nc3cc(NC(=O)Nc4ccccc4)ccc3n2C)CC1
[7]
  AC50: 2.74 µM (active)

## COc1ccc(C)c2sc(N(CCCN(C)C)C(=O)c3ccc(S(=O)(=O)N4CCc5ccccc5C4)cc3)nc12
[8]
  EC50: 1.48 µM (inconclusive)
[9]
  EC50: 5.65 µM (active)
[10]
  AC50: 2.98 µM (active)
[11]
  EC50: 4.25 µM (active)
[12]
  AC50: 4.4 µM (active)
[13]
  IC50: > 69.5 µM (inactive)
[14]
  IC50: > 69.5 µM (inactive)
[15]
  EC50: 2.13 µM (inconclusive)
[16]
  AC50: 5.51 µM (active)

## CN1/C(=C\C(=O)c2cncc(Br)c2)C(C)(C)c2ccccc21
[17]
  IC50: 66.5 µM (inactive)
[18]
  IC50: 23.7 µM (inactive)

## Cc1cccn2c(=O)c(/C=C(\C#N)C(=O)NC3CCS(=O)(=O)C3)c(N3CCC(C(N)=O)CC3)nc12 (stereo unspecified)
[19]
  AC50: 4.38 µM (active)

## O=S(=O)(Nc1cc(Cl)c(O)c2ccccc12)c1ccc(F)cc1
[20]
  CC50: 12.5 µM (active)

## CC(=O)c1cccc(-c2ccnc3c2CC(C(=O)NCc2ccc(F)c(F)c2)O3)c1 (stereo unspecified)
[21]
  AC50: 3.92 µM (active)

— ChEMBL document CHEMBL1201862, “PubChem BioAssay data set” (2004)
